Reference: patent US20110245231A1, “ACTIVE SUBSTANCE AND PHARMACEUTICAL COMPOSITION FOR TREATING ALCOHOL DEPENDENCE, AND A METHOD FOR OBTAINING AND THE USE OF SAID ACTIVE SUBSTANCE” (Alla Chem, LLC, priority 2009, published 2011)

Test system: mice with formed alcohol dependence (male mice of SHK line)
Test: Alcohol-deprivation effect (ADE): voluntary consumption of 10% alcohol in a 90-minute test before and after 4-day deprivation
Assay type: in vivo
Settings: for Alcohol consumption before deprivation: baseline test before deprivation and dosing; for ADE (ADE index): index >0.5 = alcohol dependence
Method: Alcohol dependence is determined by the increasing of alcohol consumption induced by short-time deprivation of alcohol. The occurrence and the level of this increasing is a criterion for self-control loss during the period of heavy drinking [Maisky A. I., Salimov R. M. Procedural guidelines for investigation of anti-alcohol medications. The guidebook for experimental (preclinical) investigation of novel pharmacological substances. Ed. Harbiev R. U., publ. “Medicine”, Moscow, 2005, p. 342-356].
For overcoming of the possible first-use gustatory rejection of alcohol solution during the first 6 days of the experiment male mice of SHK line were not given water, they had access only to alcohol solution of increasing concentration (3%—on the first and second days, 6%—on the third and fourth days and 10%—on the fifth and sixth days) [Mc Kinzie et al., Alcohol Clin Exp Res. 1998, 22(7):1584-90]. At that, free access to food was provided. During the next 2 months the animals had free access to pure water, food and 10% solution of alcohol.
For quantitative estimation of alcohol motivation the amount of voluntary alcohol (10% solution) consumption during the 90-minute's test after 4-day's alcohol deprivation was compared with the amount of alcohol consumed during the test carried out before 4-day's alcohol deprivation (alcohol-deprivation effect, ADE). ADE index was calculated as a ratio of alcohol consumption after its withdrawal (grams of pure alcohol per kilogram of body mass) to the total alcohol consumption before and after its withdrawal. The existence of alcohol dependence is determined by the value of ADE index exceeding 0.5, a lower meaning of ADE index corresponds to the absence of alcohol dependence.
At the end of 2-month's period of free access to water and alcohol the above estimation of ADE was carried out, and for further experiments the animals with ADE index exceeding 0.5 were selected. These mice, which had practically identical ADE values, were divided into groups of 9-12 animals.
Sodium γ-hydroxybutyrate was used as a reference drug in the experiments with male mice of SHK line.
Peroral administration once a day for 4 days running

[1] = dose 0.5 mg/kg peroral once a day for 4 days during deprivation
[2] = dose 3.0 mg/kg peroral once a day for 4 days during deprivation
[3] = dose 10.0 mg/kg peroral once a day for 4 days during deprivation
[4] = dose 10.0 mg/kg peroral once a day for 4 days
[5] = dose 20.0 mg/kg peroral once a day for 4 days during deprivation
[6] = dose 2.0 mg/kg peroral once a day for 4 days during deprivation
[7] = dose 150 mg/kg peroral once a day for 4 days during deprivation

## Br.CCSc1nc2ccccc2[nH]1 [1.1, 2-ethylsulfanyl-1H-benzimidazole hydrobromide]
0.5 mg/kg dose
  alcohol-deprivation effect (increasing of alcohol consumption after 4-days' deprivation), observed or not: observed
3-20 mg/kg
  post-deprivation increasing of alcohol consumption, observed or not: not observed
[1]
  Alcohol consumption after deprivation: 4.36 ± 1.10 g/kg
  Alcohol consumption before deprivation: 1.96 ± 0.75 g/kg
Dose 0.5 mg/kg peroral once a day for 4 days
  ADE (ADE index): 0.65 ± 0.07
[2]
  Alcohol consumption after deprivation: 2.60 ± 1.10 g/kg
  Alcohol consumption before deprivation: 3.49 ± 0.75 g/kg
Dose 3.0 mg/kg peroral once a day for 4 days
  ADE (ADE index): 0.46 ± 0.07
[3]
  Alcohol consumption after deprivation: 1.59 ± 1.10 g/kg
  Alcohol consumption before deprivation: 2.79 ± 0.75 g/kg
[4]
  ADE (ADE index): 0.39 ± 0.07
[5]
  Alcohol consumption after deprivation: 1.55 ± 1.10 g/kg
  Alcohol consumption before deprivation: 2.56 ± 0.75 g/kg
Dose 20.0 mg/kg peroral once a day for 4 days
  ADE (ADE index): 0.31 ± 0.07
dose-dependent, more noticeable at 20 mg/kg
  dose at which the decrease of alcohol-deprivation effect appears: 3 mg/kg

## Cl.c1c(C2CCCCC2)cc2c3c(n4c2c1NCC4)CCCC3 [2.2, 5-cyclohexyl-2,3,7,8,9,10-hexahydro-1H-pyrazino[3,2,1-jk]carbazole hydrochloride]
2 and 10 mg/kg doses
  alcohol-deprivation effect (increasing of alcohol consumption after 4-days' deprivation), observed or not: observed
[6]
  Alcohol consumption after deprivation: 3.42 ± 1.16 g/kg
  Alcohol consumption before deprivation: 2.61 ± 0.79 g/kg
Dose 2.0 mg/kg peroral once a day for 4 days
  ADE (ADE index): 0.58 ± 0.08
[3]
  Alcohol consumption after deprivation: 5.05 ± 1.10 g/kg
  Alcohol consumption before deprivation: 2.61 ± 0.75 g/kg
[4]
  ADE (ADE index): 0.61 ± 0.07
Used alone in doses of 2-10 mg/kg
  influence on ADE, in words: does not influence ADE

## O=C([O-])CCCO.[Na+] [SHB, sodium γ-hydroxybutyrate]
[7]
  Alcohol consumption after deprivation: 1.49 ± 1.10 g/kg
  Alcohol consumption before deprivation: 2.36 ± 0.75 g/kg
Dose 150 mg/kg peroral once a day for 4 days
  ADE (ADE index): 0.45 ± 0.07
Reference drug, 150 mg/kg (Table 3)
  effect on alcohol-deprivation effect, in words: significant decreasing of alcohol-deprivation effect
